# In US20210378247A1 (priority 2018, published 2021):
# Tests used:
# Assay type in all cases: in vivo
# [1] = test system: Colletotrichum sublineolum; test: Sorghum detached leaf assay, anthracnose disease control; conditions: strains 1×10^8 CFU/mL, pyraclostrobin 10 ppm, severity assessed after 7 days
# Protocol: Sorghum cultivar 12-GS9016-KS585 was grown in the greenhouse for a steady supply of leaf tissue for the bacterial strain evaluation. Fully expanded sorghum leaves from 4-6 weeks old plants were excised and cut into equal pieces, 2.5 cm wide. Colletotrichum sublineolum, (obtained from the Dr. Isakeit laboratory at Texas A&M University) was grown on 20% Oatmeal agar for 14 days. The actively growing culture was flooded with sterile distilled water, dislodging the spores. The concentration of the suspension was then adjusted to 1×10^6 spores/mL. Tween 20 was then added to the suspension to 0.05%.
# Each of the bacterial strains of interest was streaked onto Luria Bertani (LB) agar petri plates. A single colony was picked and placed in 50 ml of LB liquid medium or in liquid culture (CHA medium; per L, NaCl (5 g), tryptone (10 g), nutrient broth (8 g), CaCl2 (0.14 mM), MgCl2.6H2O (0.2 mM), and MnCl2.4H2O (0.01 mM)) in a 250-ml flask. […]
# Anthracnose severity was assessed on a scale of 0-4 after 7 days according to Prom, et al., 2016 (Plant Path J. 15(1): 11-16), with few modifications. […] Results (Table 4) were analyzed using analysis of variance (ANOVA) in JMP® (version 13.2.1; SAS Institute Inc., Cary, N.C.) and significant differences (P<0.05) were observed among bacterial strains.
# Phakopsora pachyrhizi = test: Soybean detached leaf disk assay, soybean rust control; conditions: detached leaf disks, strains 1×10^8 CFU/mL, azoxystrobin 0.5 ppm
# Protocol: The susceptible soybean cultivar Williams 82 was used. Soybean plants were planted every 2 weeks and placed inside a growth chamber (Percival Scientific, Inc., Boone, Iowa) maintained at 75% relative humidity with a cycle of 14 h of light (350 μmol m^−2 s^−1 PAR) and 10 h of darkness at 24 and 23° C., respectively, for a constant supply of 2 to 3 week-old rust-free leaves. A mixture of P. pachyrhizi urediniospores obtained from infected soybean leaves collected from Gadsden County, Fla. in 2015 and 2016 was used in this experiment. The details of maintenance and increase of P. pachyrhizi urediniospores have been described elsewhere (Twizeyimana and Hartman 2010, Plant Dis. 94:1453-1460).
# Leaf disks (3.5-cm diameter each) were sprayed with 120 μL of each bacterial strain of interest (1×10^8 CFU/mL of sterile distilled water) using a fingertip sprayer (Container & Packaging Supply, Eagle, Id.) fitted to a 15 mL conical centrifuge tube (Fisher Scientific, Cat No. 14-59-53A). […]
# Rust severity was scored by counting the number of sporulating uredinia in two arbitrarily selected 1-cm diameter circle of leaf tissue from an inoculated leaf disk (Table 7). Data was analyzed using analysis of variance (ANOVA) in PROC GLM of SAS (version 9.4; SAS Institute Inc., Cary, N.C.) and significant differences (P<0.05) were observed among treatments.
# Phytophthora infestans = conditions: late blight, tomato leaf disk; strains 1×10^8 CFU/ml, mefenoxam 5 ppm; severity assessed after 7 days
# [2] = test system: Colletotrichum sublineolum; test: Greenhouse assay, sorghum anthracnose on sorghum plants; conditions: greenhouse sorghum plants cv. Seso3; strains 5 g/L sprayed weekly for three weeks
# Protocol: Sorghum plants (cv. Seso3) were planted in the greenhouse. Thirty five days post planting, the plants were treated with microbial strains (AIP029105, AIP075655 or AIP061382) at the rate of 5 g/L. Other treatments included inoculated check and a fungicide (Mancozeb). The treatments were arranged in a randomized complete block design with three replications, each consisting of three plants. The treatments were sprayed onto the plant until run off. Treatment with biocontrol was done weekly for three consecutive weeks.
# One day post treatment, the plants were inoculated with a suspension of Colletotrichum sublineolum spores. The inoculum was prepared from a fungal isolate obtained from naturally infected sorghum in Eastern Uganda. The isolate was cultured on potato dextrose agar (PDA; Farm Eur. Laboratories Madrid, Spain), at 26-28° C. for two weeks to achieve sporulation. […]
# Disease incidence was carried out by observing individual plants for the appearance of anthracnose symptoms, starting at 7 days post inoculation, and thereafter on a weekly basis for five weeks. Any plant showing anthracnose symptoms was recorded and contributed to the overall number of infected plants (incidence) succumbing to the disease irrespective of the severity. […] Data was analyzed using analysis of variance (ANOVA) in JMP® (version 14.0.0; SAS Institute Inc., Cary, N.C.).
# Mycosphaerella fijiensis = test: Grand Nain leaf piece assay, black sigatoka control; conditions: Grand Nain leaf pieces, strains 1×10^8 CFU/mL, mancozeb 10 ppm
# Protocol: The susceptible musa cultivar Grand Nain was used. Plants were maintained in the greenhouse for a constant supply of disease-free leaves. The inoculum used in this evaluation was a M. fijiensis culture obtained from the International of Tropical Agriculture (IITA), Ibadan, Nigeria and was maintained on V8 Juice agar.
# Smaller leaf pieces (4 cm long×3 cm wide) were cut from the excised leaf. Two leaf pieces were placed in plastic petri dishes with adaxial side on agar amended with 5 mg/liter gibberellic acid. Leaf pieces were sprayed with 120 μL of bacterial strain (1×10^8 CFU/mL of sterile distilled water) using a fingertip sprayer. Petri dishes with leaf pieces were incubated at room temperature in the dark for 24 h. Leaf pieces were then inoculated with a mycelial suspension of M. fijiensis, Mycelial fragments scraped from growing cultures were cut in smaller mycelial tips in sterile distilled (in 50 ml conical tubes) using a homogenizer (Omni International, Kennesaw, Ga.). […]
# Data recorded was the most progressed stage on inoculated leaves at the time of data collection (there are six recognized stages for black sigatoka symptom development). Data was analyzed using analysis of variance (ANOVA) in PROC GLM of SAS (version 9.4; SAS Institute Inc., Cary, N.C.) and significant differences (P<0.05) were observed among treatments.
# Podosphaera xanthii = test: Detached squash leaf disk assay, powdery mildew control; conditions: detached squash leaf disks, tebuconazole 10 ppm, incubated six days
# Protocol: Leaf disks of healthy squash leaves were excised and cut into uniform leaf disks 35 mm in diameter using a large cork borer. An experimental unit consisted of a single leaf disk, each treated with a suspension of the selected bacterium. Treatments included AgBiome strains AIP061382, AIP075655, and AIP029105, and control treatments. Controls were non-inoculated and inoculated leaf disks, and the synthetic fungicide tebuconazole at 10 ppm as a positive control. Bacterial strains were prepared as described in Example 2. Each leaf disk was sprayed with 200 μL of the treatment (bacterial suspension or synthetic fungicide) on the adaxial surface 24 hours before inoculation with the pathogen, Podosphaera xanthii (strain obtained from Dr. McGrath laboratory, Cornell University). After treatment with the fungicide, leaf disks were incubated in the dark for 24 hours at 23° C.
# Leaf disks were inoculated by spraying a 1×10^6 suspension of P. xanthii conidia on the treated leaf surface. Treatments were placed into sealed clear plastic boxes and incubated for six days at 25° C. with a relative humidity of 80% and a 12 hour photoperiod. […] The number of powdery mildew colonies were also recorded for each treatment. […] Data was analyzed in SAS JMP version 14.0.
compound,measurement,setting,value
COC(=O)N(OC)c1ccccc1COc1ccn(-c2ccc(Cl)cc2)n1 [Pyraclostrobin],"Percent Disease Control, Confirmation",[1],97.1%
same,"Percent Disease Control, Primary screen",[1],96.2%
CO/C=C(/C(=O)OC)c1ccccc1Oc1cc(Oc2ccccc2C#N)ncn1 [Azoxystrobin],Percent Disease Control,Phakopsora pachyrhizi,97.0%
COCC(=O)N(c1c(C)cccc1C)[C@H](C)C(=O)OC [Mefenoxam],"Percent Disease Control, Confirmation",Phytophthora infestans,75.0%
same,"Percent Disease Control, Primary screen",Phytophthora infestans,75.0%
Mancozeb,Percent Disease Control,[2],52.9a %
same,Percent Disease Control,Mycosphaerella fijiensis,83.7%
CC(C)(C)C(O)(CCc1ccc(Cl)cc1)Cn1cncn1 (centres unmarked) [Tebuconazole],Percent Disease Control,Podosphaera xanthii,67.0%
